# Source: patent publication US11834663B2, “Fibrotic treatment” (Monash University, priority 2015, dated 2023)
# Key:
# [1] = tested on: thoracic aortic sections from Ang II-infused WT mice; experiment: Angiotensin II infusion prevention model: aortic fibrosis and inflammation markers (picrosirius red, immunofluorescence); format: in vivo, mouse
# Experimental: (§1) There are 8 different sets of in vivo experiments in this study: • A) Phenotypic characterisation of the heart and blood vessels in global IRAP knockout mice and their WT controls treated for 4 weeks with Angiotensin (Ang) II (800 ng/kg/min; s.c.) where mouse hearts and blood vessels were compared to tissue obtained from young WT and IRAP^−/− mice treated with saline. • B) Prevention of Ang II-induced changes in the cardiovascular system following IRAP inhibitor treatment. In the prevention model, WT mice were treated with Ang II (800 ng/kg/min; s.c.)±the IRAP inhibitor (HFI-419; 500 ng/kg/min for 28 days) or HFI-vehicle (1 DMSO:3 HBC). • C) Phenotypic characterisation of the aged heart, kidney and blood vessels in the global IRAP knockout mice where aged WT and IRAP^−/− mouse hearts, kidneys and blood vessels were compared to tissue obtained from young WT and IRAP^−/− mice. • D) Reversal of the age-induced changes in the cardiovascular system following IRAP inhibitor treatment. In the reversal model, aged WT mice were treated with either saline, IRAP inhibitor (HFI-419 at 500 ng/kg/min; compound 1 at 500 ng/kg/min; compound 2 at 50 ng/kg/min) or HFI-vehicle (1 DMSO: 3 HBC) for 4 weeks. • E) Prevention of ischemic-reperfusion injury in isolated hearts taken from aged global IRAP knockout mice and aged IRAP inhibitor (HFI-419 at 500 ng/kg/min; s.c.) treated WT mice compared to age-matched vehicle-treated (1 DMSO:3 HBC; s.c.) WT controls. • F) Phenotypic characterization of cardiac function using echocardiography in the aged global IRAP knockout mice compared to aged and young WT mice. • G) Phenotypic characterization of liver steatosis in IRAP knockout mice in a high fat diet (HFD) model. • H) Reversal of the salt-induced fibrosis in the liver following IRAP inhibitor treatment.
# To measure collagen deposition, frozen sections of heart, kidney or aorta (all 5 μm thickness) were air dried for 10 minutes and were brought through 3 times xylene (2 minutes each), and 3 times absolute alcohol washes before being rinsed in tap H2O for 30 seconds. Staining with an optimal concentration of picrosirius red (in this instance 0.05% picrosirius red diluted in saturated picric acid) was performed and left for an hour. Sections were then rinsed in water and differentiated in 0.01 M HCl for 2 minutes, followed by dehydration via 3 times absolute alcohol washes. Then, slides were brought through 3 times xylene washes before being cover slipped according to standard histological techniques using DPX as the mounting medium. Images were taken under ×20 magnification, using bright field (Olympus, BX51) and circularized polarized light microscopy (DM IRB, Leica) while percentage of positive interstitial collagen staining per total field of view was quantified using ImageJ 1.46 software (Java, NIH), and averaged out from a total of eight views as the final percentage collagen content in a particular animal.
# Immunostaining was performed on either 5 μm thick transverse frozen heart sections or 5 μm thick frozen thoracic aortic. These sections were air dried and fixed in ice-cold acetone for approximately 15 minutes before washing with 0.01M PBS buffer (3×10 minutes). Sections were then incubated with 10% goat serum in 0.01M PBS for 30 minutes to reduce non-specific binding. If the primary antibody is raised in goat, this pre-blocked medium is substituted with 5% BSA in PBS and Triton-X. Next, blocking buffers were removed and the primary antibody to respective markers were applied overnight at room temperature based on the following dilution and origin of the antibodies: IRAP (1:500, in-house), α-SMA (1:500, Abcam), Vimentin (1:500, Santa Cruz), P-IκBα (1:200, Cell Signalling), F4/80 macrophage (1:100, Serotec), MCP-1 (1:100, Santa Cruz), VWF (1:500, abcam). […]
# [2] = tested on: isolated hearts from aged WT mice; experiment: Ischemic-reperfusion injury in isolated Langendorff hearts from chronically treated aged WT mice; format: in vivo, mouse
# Experimental: as §1
# Mice were injected with heparin (500 IU) 20 min before death by cervical dislocation. The heart was rapidly excised and immersed in ice-cold physiological saline solution (PSS). Under a dissecting microscope, the heart and aortic arch were cleared of loose tissue, the pulmonary vein perforated to permit free perfusion of the heart and the heart was mounted on a Langendorff apparatus (ML870B2, ADInstruments, Bella Vista, NSW, Australia) via a 20 gauge needle. The heart was continuously perfused with pre-warmed PSS containing (mM): NaCl 118; KCl 4.7; NaHCO3 25; glucose 11; KH2PO4 1.2; MgSO4 1.2; CaCl2) 1.2 mM and gassed with O2 95% and CO2 5% (carbogen) at 37° C. Prior to use, the PSS was filtered through a 0.22 μm cellulose acetate filter (Millipore). The heart perfusion chamber was surrounded by thermostatically controlled water jacket system that maintained the temperature at 37° C. A fine, 200 μm cannula was present in the PSS line for drug delivery (1:10 drug dilution and with a time lag of 1 min to the heart). A Millar pressure cathether (Millar instruments Inc.) was introduced into the left ventricle via a puncture at the junction of the left atrium and ventricle, and connected to a Power lab system (ADInstruments). […] Left ventricular developed pressure (LVDP); end diastolic pressure (EDP), heart rate (HR), left ventricular contractility (+dP/dt) and left ventricular relaxation (−dP/dt) and coronary flow were recorded continuously.
# Ischemia was induced by halting perfusion of the heart for 40 min. […] Left ventricular developed pressure (LVDP), end diastolic pressure (EDP) and contractility (±dP/dt) were recorded during the 60 min. […]
# [3] = Ang II + HFI-419, 4 weeks, FIG. 4
# [4] = Ang II + HFI-419, 4 weeks, immunofluorescence, FIG. 3
structure (smiles),measurement,setting,value
CCOC(=O)C1=C(NC(C)=O)Oc2cc(O)ccc2C1c1cccnc1 (stereo not drawn) [HFI-419],"Ang II-induced vascular fibrosis (aortic collagen, picrosirius red)","[1]; Ang II 800 ng/kg/min + HFI-419 500 ng/kg/min, 4 weeks, FIG. 3",prevented
same,ICAM-1 expression in aorta,[1]; [3],reductions
same,MCP-1 expression in aorta,[1]; [3],reductions
same,P-IκBα (marker for NFκB activation) expression in aorta,[1]; [3],reductions
same,VCAM-1 expression in aorta,[1]; [3],reductions
same,TGF-β1 expression in aorta,[1]; [4],decreased
same,α-SMA expression in aorta,[1]; [4],decreased
same,reduction in infarct area compared to the aged WT control,"[2]; 40 min ischemia / 60 min reperfusion, aged WT mice treated with HFI-419 for 4 weeks, FIG. 20a",~50%
same,recovery of LVDP in the first 10 minutes of reperfusion,"[2]; aged WT mice, HFI-419 4 weeks",did not affect
same,recovery of LVDP in latter stages of reperfusion,"[2]; evident from 20 min of reperfusion, aged WT mice, HFI-419 4 weeks, FIG. 20b",significant improvement
same,recovery of LV±dP/dt in latter stages of reperfusion,"[2]; evident from 20 min of reperfusion, aged WT mice, HFI-419 4 weeks, FIG. 20c,d",significant improvement
same,"HR, LVDP or LVEDP at baseline","[2]; pre-ischemic baseline, aged WT vehicle vs HFI-419 treated",no difference
